{"source": "paper PMC2866165", "about": "(Nuclear medicine and biology, 2010)", "origin": "cited, not measured here", "key": {"[1]": {"test_system": "PDE3A", "conditions": "read-out: IC50 for PDE3A"}, "[2]": {"test_system": "PDE4D", "conditions": "read-out: IC50 for PDE4D"}}, "data": [{"molecule": "COc1ccc(Cc2nccc3cc(OC)c(OC)cc23)cc1OC", "note": "[Papaverine, 1-(3,4-dimethoxybenzyl)-6,7-dimethoxyisoquinoline]", "values": [{"measurement": "IC50", "setting": "[1]", "result": 1300, "unit": "nM"}, {"measurement": "IC50", "setting": "[2]", "result": 320, "unit": "nM"}, {"measurement": "Biological half-life in rat plasma", "result": 15, "unit": "min"}]}]}
